The record followed here is ChEMBL document CHEMBL1158509, “Novel selective thiazoleacetic acids as CRTH2 antagonists developed from in silico derived hits. Part 2” (Bioorg Med Chem Lett, 2010).

Data set [1] in a line: Clearance in rat. Type of data set: ADME, organism-based. Conditions: in vivo.
Data set [2] deals with T1, Prostaglandin D2 receptor 2 (Homo sapiens) (UniProt Q9Y5Y4).
T1 sequence (whole entry): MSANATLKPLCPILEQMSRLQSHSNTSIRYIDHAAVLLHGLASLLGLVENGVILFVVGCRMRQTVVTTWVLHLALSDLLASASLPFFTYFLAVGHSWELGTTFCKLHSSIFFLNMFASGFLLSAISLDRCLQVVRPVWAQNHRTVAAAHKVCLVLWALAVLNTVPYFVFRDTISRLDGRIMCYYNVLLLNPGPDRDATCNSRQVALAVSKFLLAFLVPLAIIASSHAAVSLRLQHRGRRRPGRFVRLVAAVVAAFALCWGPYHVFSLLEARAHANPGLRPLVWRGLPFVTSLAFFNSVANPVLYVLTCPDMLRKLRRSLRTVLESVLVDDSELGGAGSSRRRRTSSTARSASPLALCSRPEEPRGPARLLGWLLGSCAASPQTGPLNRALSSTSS
Nature of the data set: Antagonist activity at human CRTH2 receptor expressed in […] cells assessed as inhibition of beta arrestin translocation by bioluminescence resonance energy transfer assay relative to control. The class given is functional, cell-based.

The target in data set [3] is T2, Prostaglandin D2 receptor 2 (Homo sapiens, UniProt Q9Y5Y4).
T2 sequence (Q9Y5Y4 whole entry): T1 sequence (whole entry)
Description: Antagonist activity at human CRTH2 receptor expressed in […] cells assessed as inhibition of beta arrestin translocation by bioluminescence resonance energy transfer assay. The class given is functional, cell-based.

The nature of data set [4]: Permeability apical to basolateral side in human Caco-2 cells. The class given is ADME, cell-based. Conditions: read-out: permeability. In general terms: Caco-2 cells form a polarised layer with tight junctions and transporters.
For data set [5], the target named is T3, Prostaglandin G/H synthase 2 (Homo sapiens) (UniProt P35354).
T3 sequence (whole entry): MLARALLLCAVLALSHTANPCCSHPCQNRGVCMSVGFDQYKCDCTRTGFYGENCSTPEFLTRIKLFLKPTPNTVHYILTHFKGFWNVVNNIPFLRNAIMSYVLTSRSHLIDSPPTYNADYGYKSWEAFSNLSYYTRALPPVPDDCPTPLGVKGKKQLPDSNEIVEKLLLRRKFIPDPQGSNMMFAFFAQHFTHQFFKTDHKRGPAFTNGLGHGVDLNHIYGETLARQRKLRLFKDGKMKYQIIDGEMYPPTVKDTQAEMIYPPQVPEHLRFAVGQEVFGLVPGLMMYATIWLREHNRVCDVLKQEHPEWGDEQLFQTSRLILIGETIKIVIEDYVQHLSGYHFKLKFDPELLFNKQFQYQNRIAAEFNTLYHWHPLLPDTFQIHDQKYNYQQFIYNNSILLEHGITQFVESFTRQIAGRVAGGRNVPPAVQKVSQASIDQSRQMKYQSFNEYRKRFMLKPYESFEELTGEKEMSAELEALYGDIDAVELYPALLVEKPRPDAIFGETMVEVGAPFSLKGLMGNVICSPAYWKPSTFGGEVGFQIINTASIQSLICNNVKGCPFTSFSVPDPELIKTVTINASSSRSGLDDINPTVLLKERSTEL
Description: Inhibition of COX2 at 10 uM.

The nature of data set [6]: Bioavailability in rat. The class given is ADME, organism-based. Conditions: in vivo.
Data set [7] addresses CYP3A4 (Homo sapiens, UniProt P08684). Nature of the data set: Inhibition of CYP3A4 at 1 uM. The class given is ADME.
Data set [8] in a line: Metabolic stability in human liver S9 fraction assessed as compound remaining. Type of data set: ADME, subcellular.
Data set [9] addresses CYP2D6 (Homo sapiens, UniProt P10635). Description: Inhibition of CYP2D6 at 1 uM. Type of data set: ADME.
Data set [10] addresses T2, Prostaglandin D2 receptor 2. Nature of the data set: Displacement of[3H]PGD2 from human CRTH2 receptor expressed in […] cells. Type of data set: cell-based.
Data set [11] in a line: Aqueous solubility at pH 1. Type of data set: physicochemical.
Data set [12] addresses T4, Prostaglandin D2 receptor (Homo sapiens, UniProt Q13258).
T4 sequence (Q13258 whole entry): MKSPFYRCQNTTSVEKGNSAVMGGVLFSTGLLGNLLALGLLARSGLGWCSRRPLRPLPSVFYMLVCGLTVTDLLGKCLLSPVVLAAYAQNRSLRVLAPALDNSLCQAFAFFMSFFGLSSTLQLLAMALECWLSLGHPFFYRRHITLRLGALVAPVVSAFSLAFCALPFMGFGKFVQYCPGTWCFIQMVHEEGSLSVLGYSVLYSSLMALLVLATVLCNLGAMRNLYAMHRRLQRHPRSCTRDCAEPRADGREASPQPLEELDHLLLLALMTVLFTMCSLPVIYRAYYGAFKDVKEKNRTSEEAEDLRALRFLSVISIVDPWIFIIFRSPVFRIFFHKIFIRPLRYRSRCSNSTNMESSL
Description: Inhibition of DP1 receptor.

Data set [13] is described as follows: Metabolic stability in rat liver S9 fraction assessed as compound remaining. The class given is ADME, subcellular.
Data set [14] concerns the target Prostaglandin G/H synthase 1 (Homo sapiens) (UniProt P23219). Description: Inhibition of COX1 at 10 uM.
Data set [15] concerns the target T5, Polyunsaturated fatty acid lipoxygenase ALOX12 (Homo sapiens) (UniProt P18054).
T5 sequence (whole entry): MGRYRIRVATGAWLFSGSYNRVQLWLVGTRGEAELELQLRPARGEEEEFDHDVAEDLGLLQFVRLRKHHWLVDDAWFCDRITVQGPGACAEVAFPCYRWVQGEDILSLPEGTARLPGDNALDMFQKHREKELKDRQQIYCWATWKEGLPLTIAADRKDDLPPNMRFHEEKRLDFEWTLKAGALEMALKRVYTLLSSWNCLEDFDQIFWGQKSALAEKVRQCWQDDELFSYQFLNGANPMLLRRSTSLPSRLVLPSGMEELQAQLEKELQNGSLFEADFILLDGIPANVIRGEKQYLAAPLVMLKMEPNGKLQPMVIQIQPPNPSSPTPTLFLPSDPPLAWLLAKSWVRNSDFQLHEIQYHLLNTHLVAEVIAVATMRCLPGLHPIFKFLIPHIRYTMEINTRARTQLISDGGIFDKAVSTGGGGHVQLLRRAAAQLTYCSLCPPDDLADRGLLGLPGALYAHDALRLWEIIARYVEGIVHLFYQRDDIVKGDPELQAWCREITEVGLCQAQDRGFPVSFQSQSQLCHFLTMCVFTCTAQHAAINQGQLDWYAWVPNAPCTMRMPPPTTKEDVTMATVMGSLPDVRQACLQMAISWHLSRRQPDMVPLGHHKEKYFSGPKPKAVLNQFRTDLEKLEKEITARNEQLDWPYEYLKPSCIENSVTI
Description: Inhibition of 12-lipoxygenase at 10 uM.

Data set [16] deals with T6, Polyunsaturated fatty acid lipoxygenase ALOX15 (Homo sapiens) (UniProt P16050).
T6 sequence (whole entry): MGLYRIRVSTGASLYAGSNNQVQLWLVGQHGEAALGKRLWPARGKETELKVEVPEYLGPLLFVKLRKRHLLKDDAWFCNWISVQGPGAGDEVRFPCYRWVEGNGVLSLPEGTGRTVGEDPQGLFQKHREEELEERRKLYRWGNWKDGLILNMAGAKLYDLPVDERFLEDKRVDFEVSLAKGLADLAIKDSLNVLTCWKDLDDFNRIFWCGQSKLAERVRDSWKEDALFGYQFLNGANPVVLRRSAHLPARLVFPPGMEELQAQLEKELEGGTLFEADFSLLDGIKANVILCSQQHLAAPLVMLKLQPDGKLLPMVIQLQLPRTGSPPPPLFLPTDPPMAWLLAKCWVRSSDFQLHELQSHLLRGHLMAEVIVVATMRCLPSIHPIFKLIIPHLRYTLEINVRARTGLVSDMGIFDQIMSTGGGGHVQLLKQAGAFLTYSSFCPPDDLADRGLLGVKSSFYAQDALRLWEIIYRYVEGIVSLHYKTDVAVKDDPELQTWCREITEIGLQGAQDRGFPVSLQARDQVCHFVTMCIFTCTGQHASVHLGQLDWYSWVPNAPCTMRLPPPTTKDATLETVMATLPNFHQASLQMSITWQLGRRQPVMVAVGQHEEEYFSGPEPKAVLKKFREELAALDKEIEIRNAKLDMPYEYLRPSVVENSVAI
Description: Inhibition of 15-lipoxygenase at 10 uM.

The nature of data set [17]: Half life in rat. The note with it: in vivo. Type of data set: ADME, organism-based.
The nature of data set [18]: Aqueous solubility at pH 7.4. The class given is physicochemical.
The target in data set [19] is Phospholipase A2 (Homo sapiens) (UniProt P04054). Description: Inhibition of PLA2 at 10 uM.
Sequence of Phospholipase A2 (Homo sapiens) (P04054 23-148 limits assumed): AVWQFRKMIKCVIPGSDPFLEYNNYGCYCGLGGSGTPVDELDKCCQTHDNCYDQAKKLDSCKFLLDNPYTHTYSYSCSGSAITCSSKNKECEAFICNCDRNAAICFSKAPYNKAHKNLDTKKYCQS

pIC50: −log10 of the molar value. Converted amounts (≈) assume the structure as drawn.

Sequence of CYP3A4 (P08684 whole entry): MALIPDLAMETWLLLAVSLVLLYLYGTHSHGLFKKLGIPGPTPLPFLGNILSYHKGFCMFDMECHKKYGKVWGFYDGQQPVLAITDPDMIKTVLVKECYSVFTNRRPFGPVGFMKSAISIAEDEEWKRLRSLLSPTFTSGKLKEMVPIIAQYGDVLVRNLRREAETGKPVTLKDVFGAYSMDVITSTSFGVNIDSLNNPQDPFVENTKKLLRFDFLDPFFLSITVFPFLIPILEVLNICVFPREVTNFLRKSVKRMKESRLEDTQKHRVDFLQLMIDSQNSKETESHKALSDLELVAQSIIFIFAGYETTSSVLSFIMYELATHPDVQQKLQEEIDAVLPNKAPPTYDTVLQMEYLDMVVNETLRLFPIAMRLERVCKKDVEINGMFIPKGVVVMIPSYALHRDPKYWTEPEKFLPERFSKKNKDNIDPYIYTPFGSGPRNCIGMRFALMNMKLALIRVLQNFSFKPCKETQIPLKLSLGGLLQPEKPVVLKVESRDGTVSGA
Sequence of Prostaglandin G/H synthase 1 (Homo sapiens) (P23219 whole entry): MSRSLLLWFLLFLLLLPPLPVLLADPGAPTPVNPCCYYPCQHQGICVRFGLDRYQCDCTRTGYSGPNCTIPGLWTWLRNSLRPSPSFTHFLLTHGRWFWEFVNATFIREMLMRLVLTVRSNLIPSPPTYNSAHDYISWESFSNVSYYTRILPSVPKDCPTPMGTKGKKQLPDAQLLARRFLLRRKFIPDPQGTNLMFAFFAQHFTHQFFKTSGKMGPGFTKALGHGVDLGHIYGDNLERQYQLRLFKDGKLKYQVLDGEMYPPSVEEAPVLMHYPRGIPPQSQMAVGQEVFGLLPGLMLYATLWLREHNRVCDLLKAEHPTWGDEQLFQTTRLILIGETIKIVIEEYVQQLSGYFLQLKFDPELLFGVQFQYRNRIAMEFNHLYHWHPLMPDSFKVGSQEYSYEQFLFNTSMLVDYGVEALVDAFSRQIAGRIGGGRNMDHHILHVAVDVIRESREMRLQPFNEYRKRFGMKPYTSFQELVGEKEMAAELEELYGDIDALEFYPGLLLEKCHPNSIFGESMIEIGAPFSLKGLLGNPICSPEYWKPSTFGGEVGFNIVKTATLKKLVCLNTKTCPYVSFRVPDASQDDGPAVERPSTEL
Sequence of CYP2D6 (P10635 whole entry): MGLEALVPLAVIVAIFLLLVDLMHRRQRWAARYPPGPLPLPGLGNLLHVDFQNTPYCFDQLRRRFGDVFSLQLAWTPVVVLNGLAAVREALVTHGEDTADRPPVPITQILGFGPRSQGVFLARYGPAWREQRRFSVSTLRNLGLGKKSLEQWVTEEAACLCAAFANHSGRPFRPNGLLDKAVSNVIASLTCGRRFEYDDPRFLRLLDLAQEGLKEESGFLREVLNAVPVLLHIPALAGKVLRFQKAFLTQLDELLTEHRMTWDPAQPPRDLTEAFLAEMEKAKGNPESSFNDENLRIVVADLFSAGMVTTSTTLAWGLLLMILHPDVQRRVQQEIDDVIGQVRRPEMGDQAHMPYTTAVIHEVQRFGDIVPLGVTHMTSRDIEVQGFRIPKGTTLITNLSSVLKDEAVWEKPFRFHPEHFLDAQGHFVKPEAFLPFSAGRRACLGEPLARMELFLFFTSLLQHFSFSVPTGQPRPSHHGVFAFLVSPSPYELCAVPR

With `O=C(O)Cc1sc(C(c2ccccc2)c2ccccc2)nc1-c1ccc(Cl)cc1`, in data set [1], the clearance (usually the volume of plasma or blood freed of the substance per unit of time) was found to be 27 mL/min/kg. Besides, the Efficacy in data set [2] worked out at 50%. Further, the pIC50 (as a rule, the IC50 on a negative log10 scale, so that one unit is a factor of ten) in [3] is 7.22; in [10], 7.85; in data set [12], 4.00. Moreover, in data set [4], the Papp A→B amounted to 2.6 ×10⁻⁶ cm/s. The inhibition in [5], in data set [14], in [15], in data set [16] and in [19] was 20% each time. Moreover, the bioavailability (in general, the share of a dose that reaches the circulation, judged against a reference dose that is usually intravenous) in [6] was 62%. The inhibition (usually the percentage by which the read-out fell short of the control) at 1 µM was determined as 69% in data set [7] and 97.8% in [9]. Moreover, the results for the Stability in [8] and in [13] were 98.5% and 2.1%, respectively. In addition, the solubility (in general, the concentration that dissolves in the medium under given conditions) in data set [11] turned out to be 197 µM (≈ 82.7 µg/mL); in data set [18], 154 µM (≈ 64.7 µg/mL). For the same compound, in [17], the half-life (commonly the time needed for the level to fall by half in the phase considered) was 1440 min.
